Common to all, as to assay type: cell-based, human
Data set [1] deals with Wnt/β-catenin signaling. Put plainly: Inhibitory effect on Wnt/β-catenin signaling in liver stellate cells (LX-2, TCF4 luciferase). To be noted: concentration equal to or lower than that of IC-2. As to the method: While each compound was added at concentrations where the cell growth of fibrosis-causing liver stellate LX-2 cells was reduced to about 50 to 80%, Wnt/β-catenin signaling activity was measured. […] The concentrations of the respective compounds were as described in FIG. 41. Each control sample used was 0.1% DMSO, a solvent for each compound.
LX-2 cells, which were cultured and maintained by using 10% FBS/DMEM, were harvested and seeded (n=3) in 1% FBS/DMEM at 4.0×10^4 cells per well of a 24-well plate. Next, 25 μL of Opti-MEM (Gibco, Life Technologies Corp., Carlsbad, Calif.) containing 50 ng of pTCF4-CMVpro-GL4.20, having 3 copies of TCF motifs (CCT TTG ATC) upstream of a CMV promoter in a multiple cloning site of pGL4.20 (Promega), and 5 ng of pRL-CMV Vector (Promega) and 25 μL of Opti-MEM containing 0.4 μL of Lipofectamine 2000 (Invitrogen, Life Technologies Corp., Carlsbad, Calif.) were mixed and incubated at room temperature for 20 min. At 20 h after the cell seeding, the mixture was added to each well, so that both reporter plasmids were transiently transfected into the cells. After additional 4 h, 2.5 ng/mL of TGF-β and each compound were added to the cells and the mixture was cultured at 37° C.
At 24 and 48 h after the compound treatment, the culture medium was discarded, and 100 μL of room temperature 5×Passive Lysis Buffer (PLB), which had been diluted 5-fold with MilliQ water, was added to each well. Next, the plate was shaken at room temperature for 15 min and was then frozen at −30° C. overnight. A Luciferase Assay Substrate was diluted with 10 mL of room temperature Luciferase Assay Buffer II to prepare Luciferase Assay Reagent II (LARII). Then, 1 μL of Stop&Glo Substrate was diluted with 49 μL of room temperature Stop&Glo Buffer to prepare Stop&Glo (Promega) in a quantity enough for samples.
The frozen PLB lysate samples were thawed and permeabilized for 15 min. After that, 50 μl aliquots of LARII were dispensed into 3.5 mL test tubes (Sarstedt, AG & Co., Numbrecht, Germany) and 10 μL of each frozen PLB lysate sample was added and mixed well. Subsequently, luminescence was quantified by using a MiniLumat LB 9506 (Berthold Technologies GmbH & Co, Bad Wildbad, Germany) to measure firefly luciferase activity. After the measurement, 50 μL of Stop&Glo was added and mixed well and luminescence was then quantified by using the MiniLumat LB 9506 to determine Renilla luciferase activity. The measurement results were obtained by dividing the firefly luciferase activity by the Renilla luciferase activity.

A further data set deals with HuH-7 cells. Put plainly: Growth inhibitory effect on cancer cells (WST assay), Example 2.3. To be noted: for IC50: HuH-7 cells, WST assay, concentrations 0-50 μM, control 0.1% DMSO; for IC50 compared with IC-2: comparison with IC-2. As to the method: HuH-7 cells, a human liver cancer cell line, were cultured on 10-cm cell culture dishes (TPP Techno Plastic Products AG, Trasadingen, Switzerland) by using DMEM under conditions at 5% CO2, 37° C., and 100% humidity. When the cells were 70 to 90% confluent, 200 μL of 0.25% Trypsin/1 mM EDTA solution, which had been prepared by diluting the stock solution 10-fold with PBS (−), was added to detach the cells. Then, the cells were centrifuged at 1000 rpm for 3 min at room temperature. The cells recovered were subcultured at a 1:4 split ratio.
First, 70 to 90% confluent HuH-7 cells were harvested and seeded (n=3) at 5×10^3 cells/well of a 96-well plate (TPP). After 24 h, each compound was added to the cells and the mixture was cultured at 37° C. The concentrations of each compound were 0, 10, 20, 30, 40, and 50 μM. For IC-2-506-1, however, the concentrations used were 0, 10, 20, 25, 30, 40, and 50 μM. Each control sample (0 μM) used was 0.1% DMSO, a solvent for each compound.
Next, 0, 24, 48, and 96 h after the compound treatment, 100 μIL of DMEM-diluted 10% Cell Counting Kit-8 (DOJINDO LABORATORIES, Kumamoto) was added. The mixture was incubated at 37° C. for 60 min and its absorbance (at a measurement wavelength of 450 nm/control wavelength of 600 nm) was measured by using a Sunrise Rainbow RC (Tecan Group Ltd., Mannedorf, Switzerland). Absorbance for the cells alone was calculated by subtracting, from the reading obtained, absorbance for 10% Cell Counting Kit-8 alone.
The “*” in figures indicates a significant difference of p<0.05 between 0.1% DMSO and each compound; and the “**” indicates a significant difference of p<0.01 (the same applies to all the figures in Examples).

In another data set the test system is mesenchymal stem cell. Kind of data set: Hepatocyte differentiation-inducing effect, summary statements on Example 4 (readout not specified). The text has this:
Albumin, a hepatocyte marker, was used as an indicator, and RNA was collected from cells treated with each compound. Next, a hepatocyte differentiation-inducing effect was examined by real-time RT-PCR. The concentrations of the respective compounds were as described in FIG. 35. Each control sample used was 0.1% DMSO, a solvent for each compound.
By using urea synthesis, a hepatocyte function, as an indicator, a hepatocyte differentiation-inducing effect of each compound was investigated.
The cells treated with each compound were subjected to immunofluorescence analysis of albumin, a hepatocyte marker, to investigate a hepatocyte differentiation-inducing effect. The concentrations of the respective compounds were as described in FIG. 37. Each control sample used was 0.1% DMSO, a solvent for each compound.
By using glycogen synthesis, a hepatocyte function, as an indicator, a hepatocyte differentiation-inducing effect of each compound was investigated.

A further data set has as its system LX-2 cells. Put plainly: Anti-fibrosis effect, summary statements on Example 3 (marker not specified). The text has this:
α-Smooth muscle actin (α-SMA), a fibrosis marker, was used as an indicator, and RNA was collected from LX-2 cells treated with each low-molecular-weight compound. Next, an inhibitory effect on fibrosis was examined by real-time RT-PCR.
In addition, instead of α-SMA, another fibrosis marker collagen, type I, alpha 1 (COL1A1) was used as an indicator, and substantially the same protocol was repeated. The concentrations of each compound used were as described in FIG. 34. Each control sample used was 0.1% DMSO, a solvent for each compound. Here, COL1A1 primers used were 5′-CCT CCA GGG CTC CAA CGA G-3′ and 5′-TCAATCACTGTCTTGCCCCA-3′. The annealing was performed at 58° C. for 5 sec. The measurement results were obtained by dividing the calculated value for the COL1A1 gene by the calculated value for the GAPDH gene.

The subject of data set [2] is Wnt/β-catenin signaling. Put plainly: Inhibitory effect on Wnt/β-catenin signaling in liver cancer cells (HuH7-TCF4 luciferase). The conditions noted are these: concentration equal to or lower than that of IC-2. As to the method:
A pTCF4-CMVpro-GL4.20 plasmid vector, which had been constructed by inserting 3 copies of TCF4 motifs (CCT TTG ATC) upstream of a CMV promoter into a multiple cloning site of pGL4.20 (Promega Corp., Fitchburg, Wis.), was linearized and stably transfected into the HuH-7 cells. The resulting stable cells (HuH7-TCF4 cells) and HuH-7 cells were likewise cultured.
While each compound was added at concentrations where the growth of HuH-7 cells was reduced to about 50% or less, Wnt/β-catenin signaling activity was measured. The concentrations of the respective compounds were as described in FIG. 40. Control samples used were 0.1% DMSO, a solvent for each compound, and 0.5 μM 5-FU.
First, 70 to 90% confluent HuH7-TCF4 cells were harvested and seeded (n=3) at 5.0×10^4 cells/well of a 24-well plate (TPP). After 24 h, each compound was added to the cells and the mixture was cultured at 37° C.
At 48 h after the compound treatment, the culture medium was discarded, and 100 μL of room temperature 5×Passive Lysis Buffer (PLB) (Promega Corp., Fitchburg, Wis.), which had been diluted 5-fold with MilliQ water, was added to each well. Next, the plate was shaken at room temperature for 15 min and was then frozen at −30° C. overnight. A Luciferase Assay Substrate was diluted with 10 mL of room temperature Luciferase Assay Buffer II to prepare Luciferase Assay Reagent II (LARII) (Promega). The frozen PLB lysate samples were thawed and permeabilized for 15 min. Then, 10 μL aliquots were added to wells of a 96-well white plate (Corning Inc., Corning, N.Y.). While 50 μL aliquots of LARII were each added to each well, luminescence was quantified by using a 1420 multi-label counter ARVO MX (PerkinElmer Singapore Pte Ltd., Singapore) to determine firefly luciferase activity. Note that a significant difference was evaluated by using (two-tailed) Student's t-test. The “*” in figures indicates a significant difference of p<0.05 between 0.1% DMSO and each compound; and the “**” indicates a significant difference of p<0.01 (the same applies to all the figures in Examples).

For the molecule `O=C1C(Cc2ccccc2)N2C(=O)CCN(C(=O)NCc3ccccc3)C2CN1Cc1ccc(Cl)cc1Cl` (stereo not drawn) [IC-2-506-2], in the data set on Wnt/β-catenin signaling [1], the “inhibitory effect on Wnt/β-catenin signaling pathway in liver stellate cells compared with IC-2” value was “more potent inhibitory effect”. In the data set with HuH-7 cells, the IC50 amounted to 25.6 µM and the “IC50 compared with IC-2” value is given as “lower IC50 than IC-2”. Further, in the data set on mesenchymal stem cell (concentration higher than that of IC-2), the “hepatocyte-inducing effect compared with IC-2” value was “more potent hepatocyte-inducing effect”. Further, the “anti-fibrosis effect compared with IC-2, equal or higher concentration” value in the data set on LX-2 cells (concentration equal to or higher than that of IC-2) is “more potent anti-fibrosis effect”.

Turning to `O=C1C(Cc2ccccc2)N2C(=O)CCN(C(=O)NCc3ccc(Cl)cc3)C2CN1Cc1cccc2ccccc12` (stereo not drawn) [IC-2-Cl], the “inhibitory effect on Wnt/β-catenin signaling pathway in liver stellate cells compared with IC-2” value with Wnt/β-catenin signaling [1] is “more potent inhibitory effect”. Moreover, in the data set with HuH-7 cells, the IC50 is 14.4 µM and the “IC50 compared with IC-2” value is given as “lower IC50 than IC-2”. Besides, the “anti-tumor effect compared with IC-2” value with HuH-7 cells (at a concentration lower than that of IC-2) was “more potent anti-tumor effect”. In the data set on mesenchymal stem cell (low concentration), the “hepatocyte-inducing effect at low concentration” value was “exerted a hepatocyte-inducing effect”. Besides, the “inhibitory effect on Wnt/β-catenin signaling pathway in liver cancer cells compared with IC-2” value in the data set on Wnt/β-catenin signaling [2] was “more potent inhibitory effect”. Besides, the “anti-fibrosis effect compared with IC-2, lower concentration” value with LX-2 cells (concentration even lower than that of IC-2) is recorded as “more potent anti-fibrosis effect”.

The term IC50 denotes the concentration that gives 50% inhibition. Low values mean greater potency, high ones weaker potency.

The values above are taken from patent US10597398B2, “Suppression and regeneration promoting effect of low molecular weight compound on cancer and fibrosis” (NATIONAL UNIVERSITY CORPORATION TOTTORI UNIVERSITY, priority 2015, dated 2020).
